Reference: patent publication US20240425499A1, “TYRO3 INHIBITORS” (HALIA THERAPEUTICS, INC., priority 2021, published 2024)

Target: recombinant human TYRO3 (Homo sapiens (Human), UniProt Q06418)
Assay: TYRO3 enzymatic assay (radiometric [32P]-ATP, Poly(Glu,Tyr) substrate)
Type: biochemical
Conditions: recombinant human TYRO3, [32P]-ATP
Protocol: Poly(Glu, Tyr) sodium salt (Glu:Tyr (4:1), quality level 200, molecular weight 5,000-20,000, obtained from Sigma Aldrich, catalogue #P7244, assay concentration 0.20 mg/mL) and recombinant human TYRO3 (obtained from ThermoFisher Scientific, catalogue #PV3828, assay concentration 2 nM) were mixed in assay buffer (20 mM Hepes pH 7.5, 10 mM MgCl2, 1 mM EGTA, 0.02% Brij35, 0.02 mg/ml BSA, 0.1 mM Na3VO4, 2 mM DTT, 1% DMSO, with added MnCl2 at a final concentration of 2 mM). Compounds of interest (in DMSO, serial 3-fold dilution from 10 μM to 0.5 nM) or control (1% DMSO) were dispensed into the kinase reaction mixture by Acoustic technology (Echo550; nanoliter range). After incubation at room temperature for 20 minutes, the kinase reaction was initiated by addition of [^32P]-ATP (Specific activity 10 μCi/μl) and the mixture was incubated at room temperature for 2 hours. The reaction was then stopped by spotting the reaction mixture on strips of phosphocellulose P81 paper. Following washing, the radioactivity of the P81 paper was measured and kinase activity data were expressed as the percent remaining kinase activity in test samples compared to vehicle (dimethyl sulfoxide) reactions. IC50 values and curve fits were obtained using Prism (GraphPad Software).

recombinant human TYRO3, sequence (Q06418 41-890): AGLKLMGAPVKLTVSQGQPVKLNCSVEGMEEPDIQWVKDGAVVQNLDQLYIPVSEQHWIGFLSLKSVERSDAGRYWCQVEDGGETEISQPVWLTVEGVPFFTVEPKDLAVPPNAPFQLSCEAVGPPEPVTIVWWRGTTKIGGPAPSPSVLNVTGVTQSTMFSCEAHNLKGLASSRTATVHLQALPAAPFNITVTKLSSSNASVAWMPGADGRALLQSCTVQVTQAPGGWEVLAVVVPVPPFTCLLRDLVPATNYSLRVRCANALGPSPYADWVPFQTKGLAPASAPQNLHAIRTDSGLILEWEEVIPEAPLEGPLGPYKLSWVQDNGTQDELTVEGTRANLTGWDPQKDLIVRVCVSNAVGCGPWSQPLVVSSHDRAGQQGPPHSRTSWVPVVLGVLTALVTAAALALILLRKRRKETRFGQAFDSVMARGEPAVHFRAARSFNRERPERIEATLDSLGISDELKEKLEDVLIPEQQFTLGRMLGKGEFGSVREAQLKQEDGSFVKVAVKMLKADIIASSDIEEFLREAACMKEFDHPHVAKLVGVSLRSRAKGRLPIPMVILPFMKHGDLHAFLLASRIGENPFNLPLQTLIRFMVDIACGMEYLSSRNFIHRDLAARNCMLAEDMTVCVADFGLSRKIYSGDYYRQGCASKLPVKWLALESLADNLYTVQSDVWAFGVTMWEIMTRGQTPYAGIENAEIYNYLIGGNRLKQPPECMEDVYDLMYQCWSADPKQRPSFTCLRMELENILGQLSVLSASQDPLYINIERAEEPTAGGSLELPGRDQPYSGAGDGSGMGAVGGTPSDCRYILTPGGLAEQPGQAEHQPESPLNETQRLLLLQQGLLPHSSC

Row | SMILES | IC50 [nM]
1 | OC1CCCN(Cc2ccc(-c3cnc4[nH]cc(-c5cccc(Cl)c5)c4c3)cc2)C1 (centres unmarked) [compound 8, 1-(4-(3-(3-chlorophenyl)-1H-pyrrolo[2,3-b]pyridin-5-yl)benzyl)piperidin-3-ol] | 51 to 150
2 | OC1CCCN(Cc2ccc(-c3cnc4[nH]cc(-c5ccc(F)cc5)c4c3)cc2)C1 (centres unmarked) [compound 3, 1-(4-(3-(4-fluorophenyl)-1H-pyrrolo[2,3-b]pyridin-5-yl)benzyl)piperidin-3-ol] | 51 to 150
3 | OC1CCCN(Cc2ccc(-c3cnc4[nH]cc(-c5ccc(C(F)(F)F)nc5)c4c3)cc2)C1 (centres unmarked) [compound 24, 1-(4-(3-(6-(trifluoromethyl)pyridin-3-yl)-1H-pyrrolo[2,3-b]pyridin-5-yl)benzyl)piperidin-3-ol] | 51 to 150
4 | Cc1ccc(-c2c[nH]c3ncc(-c4ccc(CN5CCCC(O)C5)cc4)cc23)cn1 (centres unmarked) [compound 20, 1-(4-(3-(6-methylpyridin-3-yl)-1H-pyrrolo[2,3-b]pyridin-5-yl)benzyl)piperidin-3-ol] | 51 to 150

The next lines start with the values.

Row | IC50 [nM] | SMILES
5 | 151 to 500 | OCc1[nH]c2ncc(-c3ccc(CN4CCCC(O)C4)cc3)cc2c1-c1cccc(F)c1 (single isomer, unassigned; enantiomer 1) [compound 88, 1-(4-(3-(3-fluorophenyl)-2-(hydroxymethyl)-1H-pyrrolo[2,3-b]pyridin-5-yl)benzyl)piperidin-3-ol Enantiomer 1]
6 | 151 to 500 | COc1ccc(-c2c[nH]c3ncc(-c4ccc(CN5CCC(O)CC5)cc4)cc23)cn1 [compound 28, 1-(4-(3-(6-methoxypyridin-3-yl)-1H-pyrrolo[2,3-b]pyridin-5-yl)benzyl)piperidin-4-ol]
7 | 51 to 150 | COc1ccc(-c2c[nH]c3ncc(-c4ccc(CN5CCC(C)(O)CC5)cc4)cc23)cn1 [compound 71, 1-(4-(3-(6-methoxypyridin-3-yl)-1H-pyrrolo[2,3-b]pyridin-5-yl)benzyl)-4-methylpiperidin-4-ol]
8 | 51 to 150 | COc1ccc(-c2c[nH]c3ncc(-c4ccc(CN5CC(OC)C5)cc4)cc23)cn1 [compound 35, 5-(4-((3-methoxyazetidin-1-yl)methyl)phenyl)-3-(6-methoxypyridin-3-yl)-1H-pyrrolo[2,3-b]pyridine]
